Tested on: 695427-040-R-J1-PDC complex spheroids, viability percent T/C
Assay: Anticancer human tumor 695427-040-R-J1-PDC patient-derived colon adenocarcinoma cell line growth inhibition [GQUAD]
Conditions: for IC50: curve of first compound; for viability, T/C: stronger effect = lower value
In short: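 Multi-cell-type spheroids of tumor cells with HUVEC and mesenchymal stem cells, treated with drug combinations. Concentrations descend in half-log steps from near clinical Cmax, or from 10 microM where Cmax is unknown; viability read-out.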

[1] = second compound 0.0316 µM, first compound 0.0316 µM
[2] = second compound 0.0316 µM, first compound 0.316 µM
[3] = second compound 0.1 µM, first compound 0.0316 µM
[4] = second compound 0.1 µM, first compound 0.316 µM
[5] = second compound 0.316 µM, first compound 0.0316 µM
[6] = second compound 0.316 µM, first compound 0.316 µM
[7] = second compound 1 µM, first compound 0.0316 µM
[8] = second compound 1 µM, first compound 0.316 µM
[9] = second compound 3.16 µM, first compound 0.0316 µM
[10] = second compound 3.16 µM, first compound 0.316 µM
[11] = second compound 10 µM, first compound 0.0316 µM
[12] = second compound 10 µM, first compound 0.316 µM
[13] = second compound 0.0316 µM, first compound 0.1 µM
[14] = second compound 0.0316 µM, first compound 1 µM
[15] = second compound 0.0316 µM, first compound 3.16 µM
[16] = second compound 0.0316 µM, first compound 10 µM
[17] = second compound 0.1 µM, first compound 0.1 µM
[18] = second compound 0.1 µM, first compound 1 µM
[19] = second compound 0.1 µM, first compound 3.16 µM
[20] = second compound 0.1 µM, first compound 10 µM
[21] = second compound 0.316 µM, first compound 0.1 µM
[22] = second compound 0.316 µM, first compound 1 µM
[23] = second compound 0.316 µM, first compound 3.16 µM
[24] = second compound 0.316 µM, first compound 10 µM
[25] = second compound 1 µM, first compound 0.1 µM
[26] = second compound 1 µM, first compound 1 µM
[27] = second compound 1 µM, first compound 3.16 µM
[28] = second compound 1 µM, first compound 10 µM
[29] = second compound 3.16 µM, first compound 0.1 µM
[30] = second compound 3.16 µM, first compound 1 µM
[31] = second compound 3.16 µM, first compound 3.16 µM
[32] = second compound 3.16 µM, first compound 10 µM
[33] = second compound 10 µM, first compound 0.1 µM
[34] = second compound 10 µM, first compound 1 µM
[35] = second compound 10 µM, first compound 3.16 µM
[36] = second compound 10 µM, first compound 10 µM
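Further: spheroids exposed to compounds for seven days before readout.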

## Cc1[nH]c2ccccc2c1CCNCc1ccc(/C=C/C(=O)NO)cc1 + CN(C)c1ccc(Nc2c3ccc(NC(=O)CCN4CCCC4)cc3nc3cc(NC(=O)CCN4CCCC4)ccc23)cc1
Second compound 0.0316 µM
  IC50: > 316 nM
Second compound 0.1 µM
  IC50: > 316 nM
Second compound 0.316 µM
  IC50: > 316 nM
Second compound 1 µM
  IC50: > 316 nM
Second compound 3.16 µM
  IC50: > 316 nM
Second compound 10 µM
  IC50: > 316 nM
Second compound 0.0316 µM, first compound 0.000999 µM
  viability, T/C: 105%
Second compound 0.0316 µM, first compound 0.00316 µM
  viability, T/C: 111%
Second compound 0.0316 µM, first compound 0.00999 µM
  viability, T/C: 106%
[1]
  viability, T/C: 101%
Second compound 0.0316 µM, first compound 0.0999 µM
  viability, T/C: 106%
[2]
  viability, T/C: 72.2%
Second compound 0.1 µM, first compound 0.000999 µM
  viability, T/C: 119%
Second compound 0.1 µM, first compound 0.00316 µM
  viability, T/C: 93.9%
Second compound 0.1 µM, first compound 0.00999 µM
  viability, T/C: 112%
[3]
  viability, T/C: 99.3%
Second compound 0.1 µM, first compound 0.0999 µM
  viability, T/C: 97.3%
[4]
  viability, T/C: 69.7%
Second compound 0.316 µM, first compound 0.000999 µM
  viability, T/C: 98.2%
Second compound 0.316 µM, first compound 0.00316 µM
  viability, T/C: 97.5%
Second compound 0.316 µM, first compound 0.00999 µM
  viability, T/C: 95.2%
[5]
  viability, T/C: 96.5%
Second compound 0.316 µM, first compound 0.0999 µM
  viability, T/C: 105%
[6]
  viability, T/C: 78.4%
Second compound 1 µM, first compound 0.000999 µM
  viability, T/C: 97.8%
Second compound 1 µM, first compound 0.00316 µM
  viability, T/C: 106%
Second compound 1 µM, first compound 0.00999 µM
  viability, T/C: 98.8%
[7]
  viability, T/C: 108%
Second compound 1 µM, first compound 0.0999 µM
  viability, T/C: 98%
[8]
  viability, T/C: 68%
Second compound 3.16 µM, first compound 0.000999 µM
  viability, T/C: 93.4%
Second compound 3.16 µM, first compound 0.00316 µM
  viability, T/C: 101%
Second compound 3.16 µM, first compound 0.00999 µM
  viability, T/C: 101%
[9]
  viability, T/C: 92.8%
Second compound 3.16 µM, first compound 0.0999 µM
  viability, T/C: 86.8%
[10]
  viability, T/C: 61.1%
Second compound 10 µM, first compound 0.000999 µM
  viability, T/C: 87.5%
Second compound 10 µM, first compound 0.00316 µM
  viability, T/C: 85.9%
Second compound 10 µM, first compound 0.00999 µM
  viability, T/C: 94.7%
[11]
  viability, T/C: 82.6%
Second compound 10 µM, first compound 0.0999 µM
  viability, T/C: 91.1%
[12]
  viability, T/C: 61.1%

## O=C(NO)c1cnc(N2CCN(S(=O)(=O)c3ccc4ccccc4c3)CC2)nc1 + CN(C)c1ccc(Nc2c3ccc(NC(=O)CCN4CCCC4)cc3nc3cc(NC(=O)CCN4CCCC4)ccc23)cc1
Second compound 0.0316 µM
  IC50: 429 nM
Second compound 0.1 µM
  IC50: 461 nM
Second compound 0.316 µM
  IC50: 431 nM
Second compound 1 µM
  IC50: 401 nM
Second compound 3.16 µM
  IC50: 447 nM
Second compound 10 µM
  IC50: 366 nM
[1]
  viability, T/C: 98.9%
[13]
  viability, T/C: 93.1%
[2]
  viability, T/C: 66.5%
[14]
  viability, T/C: 4.08%
[15]
  viability, T/C: 0.2%
[16]
  viability, T/C: 0.24%
[3]
  viability, T/C: 107%
[17]
  viability, T/C: 91.7%
[4]
  viability, T/C: 72.4%
[18]
  viability, T/C: 3.81%
[19]
  viability, T/C: 0.24%
[20]
  viability, T/C: 0.42%
[5]
  viability, T/C: 100%
[21]
  viability, T/C: 101%
[6]
  viability, T/C: 67.1%
[22]
  viability, T/C: 3.52%
[23]
  viability, T/C: 0.21%
[24]
  viability, T/C: 0.44%
[7]
  viability, T/C: 97.1%
[25]
  viability, T/C: 87.9%
[8]
  viability, T/C: 62.3%
[26]
  viability, T/C: 3.42%
[27]
  viability, T/C: 0.2%
[28]
  viability, T/C: 0.29%
[9]
  viability, T/C: 90.7%
[29]
  viability, T/C: 89.5%
[10]
  viability, T/C: 70%
[30]
  viability, T/C: 3.74%
[31]
  viability, T/C: 0.28%
[32]
  viability, T/C: 0.31%
[11]
  viability, T/C: 84%
[33]
  viability, T/C: 84.4%
[12]
  viability, T/C: 56.8%
[34]
  viability, T/C: 3.35%
[35]
  viability, T/C: 0.35%
[36]
  viability, T/C: 0.32%

## COc1ccc([C@@H](O)c2cc(-c3ncnc4cc(N5CCOCC5)ccc34)c(F)cc2Cl)nn1 + Cc1[nH]c2ccc(F)cc2c1-c1nc2c3cccnc3c3ncccc3c2[nH]1
Second compound 0.0316 µM
  IC50: 3620 nM
Second compound 0.1 µM
  IC50: > 10000 nM
Second compound 0.316 µM
  IC50: > 10000 nM
Second compound 1 µM
  IC50: 9520 nM
Second compound 3.16 µM
  IC50: 5460 nM
Second compound 10 µM
  IC50: 4230 nM
[1]
  viability, T/C: 105%
[13]
  viability, T/C: 82.6%
[2]
  viability, T/C: 80.9%
[14]
  viability, T/C: 50.7%
[15]
  viability, T/C: 58.2%
[16]
  viability, T/C: 40.8%
[3]
  viability, T/C: 103%
[17]
  viability, T/C: 81.3%
[4]
  viability, T/C: 83.5%
[18]
  viability, T/C: 56.6%
[19]
  viability, T/C: 72.1%
[20]
  viability, T/C: 46.7%
[5]
  viability, T/C: 90.7%
[21]
  viability, T/C: 89.8%
[6]
  viability, T/C: 80.3%
[22]
  viability, T/C: 72%
[23]
  viability, T/C: 71.5%
[24]
  viability, T/C: 51.2%
[7]
  viability, T/C: 74.2%
[25]
  viability, T/C: 78.5%
[8]
  viability, T/C: 83.9%
[26]
  viability, T/C: 68.9%
[27]
  viability, T/C: 73.9%
[28]
  viability, T/C: 48.9%
[9]
  viability, T/C: 64.1%
[29]
  viability, T/C: 85.6%
[10]
  viability, T/C: 72.9%
[30]
  viability, T/C: 58.1%
[31]
  viability, T/C: 66.6%
[32]
  viability, T/C: 36.4%
[11]
  viability, T/C: 74%
[33]
  viability, T/C: 65.4%
[12]
  viability, T/C: 82.8%
[34]
  viability, T/C: 60.6%
[35]
  viability, T/C: 55.5%
[36]
  viability, T/C: 38.7%

— PubChem BioAssay AID2060492 (Molecular Pharmacology Branch, DTP, NCI, 2025)
